Measurements taken from patent publication US20250163387A1, “HUMAN PITUITARY NEUROENDOCRINE TUMOR ORGANOIDS AND METHODS OF MAKING AND USING THE SAME” (ARIZONA BOARD OF REGENTS OF THE UNIVERSITY OF ARIZONA, A …, priority 2022, published 2025).

How the values were obtained:
[1] = tested on: FKBP5; experiment: GR modulation: GR target gene FKBP5 expression in PitNET organoids; format: cell-based, human
[2] = tested on: SSTR5; experiment: Differential expression of SSTR5 in iPSC generated pituitary tumor organoids; format: cell-based, human; settings: iPSC organoids (ctrl, USP48MI, USP48MV, USP8); 500 nM; vs vehicle
[3] = tested on: iPSC^ctrl organoids; experiment: Proliferation by EdU uptake; format: cell-based, human; settings: drug alone, 500 nM
Experimental: (§1) Organoids were immunostained using published protocols by our laboratory. Proliferation was measured by using 5-ethynyl-2'-deoxyuridine (EdU) incorporation according to the Manufacturer's protocol (Click-IT EdU Alexa Fluor 555 Imaging Kit, Thermo Fisher Scientific C10338). Costaining was performed by blocking fixed organoids with 2% donkey serum (Jackson Immuno Research, #017-000-121) diluted in 0.01% PBST for 1 hr. at room temperature. Organoids were then incubated overnight at 4° C. with primary antibodies followed by secondary antibodies and Hoechst (Thermo Fisher Scientific H1399, 1:1000 in 0.01% PBST) for 1 hr at room temperature. Human specific primary antibodies used included: rabbit anti-ACTH (Thermo Fisher Scientific 701293, 1:250), rabbit anti-Synaptophysin (Thermo Fisher Scientific PA5-27286, 1:100), […] (Thermo Fisher Scientific PA5-98650, 1:50), rabbit anti-LH (Thermo Fisher Scientific PA5-102674, 1:100), mouse anti-FSH (Thermo Fisher Scientific MIF2709, 1:100), mouse anti-PRL (Thermo Fisher Scientific CF500720, 1:100), Alexa Flour conjugated GH (NB500-364AF647, 1:100) and mouse anti-CAM5.2 (SIGMA […]-95, 1:250). The secondary antibodies used included Alexa Fluor 488 Donkey Anti Rabbit IgG (H+L) (Thermo Fisher Scientific A21206, 1:100) or Alexa Fluor 647 Donkey Anti Mouse IgG (H+L) (Thermo Fisher Scientific A31571, 1:100). Organoids were visualized and images acquired by confocal microscopy using the Nikon CrestV2 Spinning Disk. Fluorescence intensity and percentage of EdU positive cells of total cells, were calculated using Nikon Elements Software (Version 5.21.05).

[4] = tested on: iPSC^USP48MV organoids; experiment: Proliferation by EdU uptake; format: cell-based, human; settings: drug alone, 500 nM
Experimental: as §1

[5] = tested on: pancreatic and ovarian cancer cell lines; settings: cited from earlier work
[6] = tested on: macroadenomas; settings: patients with macroadenomas; relacorilant for three months; cited from earlier work
[7] = tested on: SSTR2; experiment: Differential expression of SSTR2 in iPSC generated pituitary tumor organoids; format: cell-based, human; settings: iPSC organoids (ctrl, USP48MI, USP48MV, USP8); 500 nM; vs vehicle
[8] = tested on: hPITO37; experiment: Spectral flow cytometry (SSTR2, SSTR5, ACTH, zombie); format: cell-based, human; settings: Rela 382 nM, Mife 2.85 nM
Experimental: (§2) The multicolor flow cytometry panel was designed using the Cytek®Full Spectrum Viewer online tool to calculate the similarity index. The organoids were harvested in cold SFDM media and centrifuged at 400×g for 5 minutes. Supernatant was discarded and organoids were dissociated to single cells using Accutase® (Thermo Fisher Scientific 00-4555-56). The enzymatic reaction was stopped using prewarmed DPBS and cells were then centrifuged at 400×g for 5 minutes and incubated with fluorochrome-conjugated/unconjugated primary surface or cytoplasmic antibodies at 4° C. for 30 minutes. Cells were then washed with Cell Staining Buffer (BioLegend #420-201) and incubated with secondary antibodies at 4° C. for 30 minutes. Cells were fixed using Cytofix/Cytoperm™ Fixation/Permeabilization Solution (BD Biosciences #554714) at 4° C. for 20 minutes, followed by washing with Fixation/Permeabilization wash buffer. Cells were then labeled with fluorochrome-conjugated/unconjugated intracellular primary antibodies at 4° C. for 30 minutes, washed and incubated with secondary antibodies at 4° C. for 30 minutes. Cells resuspended in cell staining buffer and fluorescence measured using the Cytek Aurora 5 Laser Spectral Flow Cytometer. An unstained cell sample was fixed and used as reference control. UltraComp eBeads™, Compensation Beads (Thermo Fisher Scientific #01-2222-42) were stained with the individual antibodies and used as single stain control for compensation and gating. Data was acquired using the Cytek™ Aurora and analyzed using Cytobank software (Beckman Coulter, Indianapolis, IN).

[9] = tested on: iPSC^USP48MV organoids; experiment: as above; format: cell-based, human; settings: Rela 500 nM, Mife 500 nM
Experimental: as §2

[10] = tested on: iPSC^ctrl organoids; experiment: Nuclear irregularity index (NII) morphometric analysis; format: cell-based, human; settings: 500 nM
Experimental: (§3) Nuclear Morphometric Analysis (NMA) using treated organoids was performed based on a published protocol that measures cell viability based on the changes in nuclear morphology of the cells using nuclear stain Hoechst or DAPI [30]. Images of organoid nuclei were analyzed using the ImageJ Nuclear Irregularity Index (NII) plugin for key parameters that included cell area, radius ratio, area box, aspect, and roundness. Using the published spreadsheet template, the NII of each cell was calculated with the following formula: NII=Aspect−Area Box+Radius Ratio+Roundness. The area vs NII of vehicle-treated cells were plotted as a scatter plot using the template and considered as the normal cell nuclei. The same plots were generated for each condition, and the NII and area of treated cells were compared to the normal nuclei, and classified as one of the following NMA populations: Normal (N; similar area and NII), Mitotic (S; similar area, slightly higher NII), Irregular (I; similar area, high NII), Small Regular (SR; apoptotic, low area and NII), Senescent (LR; high area, low NII), Small Irregular (SI; low area, high NII), or Large Irregular (LI; high area, high NII). […] The percentage of cells in each NII classification category were calculated and plotted as a histogram using GraphPad Prism.

[11] = tested on: iPSC^USP48MV organoids; experiment: as above; format: cell-based, human; settings: 500 nM
Experimental: as §3

## Cn1cc(S(=O)(=O)N2CCC3=Cc4c(cnn4-c4ccc(F)cc4)C[C@]3(C(=O)c3cc(C(F)(F)F)ccn3)C2)cn1 [relacorilant]
[1]
  differential expression of FKBP5: significantly reduced
[2]
  expression of SSTR5: significant induction
[3]
  cell proliferation (EdU uptake): did not induce organoid proliferation
[4]
  cell proliferation (EdU uptake): did not induce organoid proliferation
[5]
  apoptosis in vitro: induces apoptosis
[6]
  tumor (macroadenoma) regression: tumor regression in two patients
[7]
  expression of SSTR2: significant induction
[8]; Pas 837.5 nM
  cell death (Zombie positive cells): significant increase
[8]; vs Veh
  percentage of SSTR2 positive cells: significant increase
  percentage of SSTR5 positive cells: significant increase
[9]; Pas 100 nM
  ACTH positive cells: did not significantly increase
  cell death (Zombie positive cells): significant increase
[9]; vs Veh
  percentage of SSTR2 positive cells: significant increase
  percentage of SSTR5 positive cells: significant increase
[10]
  apoptotic cells by nuclear morphology (NII): not observed
[11]
  apoptotic cells by nuclear morphology (NII): increased apoptotic cells
